Data reported in patent publication US11634393B2, “Substituted tolyl fungicides” (FMC CORPORATION, priority 2018, dated 2023).

Assays:
Phakopsora pachyrhizi = assay: Test D: Asian soybean rust, spray on soybean seedlings, disease control rating; format: in vivo; conditions: 100 = 100% disease control, 0 = no disease control relative to the controls; for pest or weed control at 10 ppm / Test D disease control rating: Rate 10 ppm
Source text: (§1) General protocol for preparing test suspensions for Tests A-F: the test compounds were first dissolved in acetone in an amount equal to 3% of the final volume and then suspended at the desired concentration (in ppm) in acetone and purified water (50/50 mix by volume) containing 250 ppm of the surfactant PEG400 (polyhydric alcohol esters). The resulting test suspensions were then used in Tests A-F.
The test solution was sprayed to the point of run-off on soybean seedlings. The following day the seedlings were inoculated with a spore suspension of Phakopsora pachyrhizi (the causal agent of Asian soybean rust) and incubated in a saturated atmosphere at 22° C. for 24 h and then moved to a growth chamber at 22° C. for 8 days, after which time visual disease ratings were made.
(§2) A rating of 100 indicates 100% disease control and a rating of 0 indicates no disease control (relative to the controls). A dash (-) indicates the compound was not tested.

[1] = system: Puccinia recondita f. sp. tritici; assay: Test B: wheat leaf rust, spray on wheat seedlings, disease control rating; format: in vivo; conditions: 100 = 100% disease control, 0 = no disease control relative to the controls; for pest or weed control at 10 ppm / Test B disease control rating: Rate 10 ppm
Source text: as §1
The test solution was sprayed to the point of run-off on wheat seedlings. The following day the seedlings were inoculated with a spore suspension of Puccinia recondita f. sp. tritici (the causal agent of wheat leaf rust) and incubated in a saturated atmosphere at 20° C. for 24 h, and then moved to a growth chamber at 20° C. for 7 days, after which time disease ratings were made.
as §2

SMILES | melting point [°C] | pest or weed control at 10 ppm (Phakopsora pachyrhizi; Phakopsora pachyrhizi, 216 h) [%] | pest or weed control at 10 ppm ([1]; Puccinia recondita, 192 h) [%] | other results
COC(=O)NCc1cc(-c2ncn(-c3c(F)cc(C(F)(F)F)cc3F)n2)ccc1C [Compound 103] | 168 to 172 | 86 | 100 | 
COC(=O)NCc1cc(-c2ccn(-c3c(F)cc(OC4CCC4)cc3F)n2)ccc1C [Compound 13, methyl N-[[5-[1-[4-(cyclobutyloxy)-2,6-difluorophenyl]-1H-pyrazol-3-yl]-2-methylphenyl]methyl]carbamate] | 126 to 128 | 100 | 100 | 
COC(=O)NCc1cc(-c2cn(-c3c(C)cc(OC)cc3C)nn2)ccc1C [Compound 124] | 110 to 114 | 0 | 0 | 
COC(=O)NCc1cc(-c2ccn(-c3c(F)cc(SC(F)F)cc3F)n2)ccc1C [Compound 43, methyl N-[[5-[1-[4-[(difluoromethyl)thio]-2,6-difluorophenyl]-1H-pyrazol-3-yl]-2-methylphenyl]methyl]carbamate] |  | 100 | 100 | 
C=CCON=Cc1cc(F)c(-n2ccc(-c3ccc(C)c(CNC(=O)OC)c3)n2)c(F)c1 [Compound 81] |  |  |  | Test D disease control rating (Phakopsora pachyrhizi): 100%; Test B disease control rating [1]: 92%
COC(=O)NCc1cc(-c2ccn(-c3c(F)cc(OC(C)=O)cc3F)n2)ccc1C [Compound 18] |  |  |  | Test D disease control rating (Phakopsora pachyrhizi): 65%; Test B disease control rating [1]: 41%
COC(=O)NCc1cc(-c2ccn(-c3c(F)cccc3Cl)n2)ccc1C [Compound 47] |  | 100 | 74 | 
COC(=O)NCc1cc(-c2cnn(-c3c(F)cc(C(C)=O)cc3F)n2)ccc1C [Compound 140] |  |  |  | Test D disease control rating (Phakopsora pachyrhizi): 71%; Test B disease control rating [1]: 41%
COC(=O)NCc1cc(-c2ccn(-c3c(F)cc(SC(C)(C)C)cc3F)n2)ccc1C [Compound 42, methyl N-[[5-[1-[4-[(1,1-dimethylethyl)thio]-2,6-difluorophenyl]-1H-pyrazol-3-yl]-2-methylphenyl]methyl]carbamate] |  | 73 | 100 | 
COC(=O)NCc1cc(-c2ccn(-c3c(F)cc(C4OCCCO4)cc3F)n2)ccc1C [Compound 134] |  | 100 | 89 | 
COC(=O)NCc1cc(-c2ccn(-c3c(F)cc(C(C)=O)cc3F)n2)ccc1C [Compound 68, methyl N-[[5-[1-(4-acetyl-2,6-difluorophenyl)-1H-pyrazol-3-yl]-2-methylphenyl]methyl]carbamate] |  | 71 | 74 | 
COC(=O)NCc1cc(-c2ccn(-c3c(F)cc(CF)cc3F)n2)ccc1C [Compound 77] |  | 100 | 100 | 
COC(=O)NCc1cc(-c2ccn(-c3c(F)cc(OCF)cc3F)n2)ccc1C [Compound 73] |  | 100 | 100 | 
COC(=O)NCc1cc(-c2ccn(-c3c(F)cc(C(C)=NO)cc3F)n2)ccc1C [Compound 69] |  |  |  | Test D disease control rating (Phakopsora pachyrhizi): 97%; Test B disease control rating [1]: 99%
COC(=O)NCc1cc(-c2ccn(-c3c(Cl)cccc3I)n2)ccc1C [Compound 59] |  | 87 | 45 | 
COC(=O)NCc1cc(-c2ccn(-c3c(F)cc(OCC(C)C)cc3F)n2)ccc1C [Compound 12] |  |  |  | Test D disease control rating (Phakopsora pachyrhizi): 100%; Test B disease control rating [1]: 98%
COC(=O)NCc1cc(-c2ccn(-c3c(F)cc(OC(=O)OC)cc3F)n2)ccc1C [Compound 17] |  |  |  | Test D disease control rating (Phakopsora pachyrhizi): 0%; Test B disease control rating [1]: 0%
COC(=O)NCc1cc(-c2ccn(-c3c(F)cc(C=NO)cc3F)n2)ccc1C [Compound 72] |  |  |  | Test D disease control rating (Phakopsora pachyrhizi): 77%; Test B disease control rating [1]: 100%
COC(=O)NCc1cc(-c2ccn(-c3c(F)cccc3Br)n2)ccc1C [Compound 46] |  | 100 | 68 | 

Continued, in another order:

melting point [°C] | SMILES | pest or weed control at 10 ppm (Phakopsora pachyrhizi; Phakopsora pachyrhizi, 216 h) [%] | pest or weed control at 10 ppm ([1]; Puccinia recondita, 192 h) [%] | other results
142 to 143 | COC(=O)NCc1cc(-c2ccn(-c3c(F)cccc3F)n2)ccc1C [Compound 4, methyl N-[[5-[1-(2,6-difluorophenyl)-1H-pyrazol-3-yl]-2-methylphenyl]-methyl]carbamate] | 100 | 90 | 
166 to 170 | COC(=O)NCc1cc(-c2cn(-c3c(F)cc(I)cc3F)nn2)ccc1C [Compound 125] | 0 | 68 | 
154 to 158 | COC(=O)NCc1cc(-c2cnn(-c3c(F)cc(I)cc3F)n2)ccc1C [Compound 116] | 100 | 100 | 
136 to 140 | COC(=O)NCc1cc(-c2cnn(-c3c(F)cc(Br)cc3F)n2)ccc1C [Compound 114] | 100 | 100 | 
146 to 150 | COC(=O)NCc1cc(-c2cn(-c3c(F)cc(OC)cc3F)nn2)ccc1C [Compound 130] | 0 | 68 | 
107 to 111 | COC(=O)NCc1cc(-c2cnn(-c3c(F)cc(C4CC4)cc3F)n2)ccc1C [Compound 113] | 100 | 100 | 
159 to 163 | COC(=O)NCc1cc(-c2cn(-c3c(F)cc(Cl)cc3F)nn2)ccc1C [Compound 121, methyl N-[[5-[1-(4-chloro-2,6-difluorophenyl)-1H-1,2,3-triazol-4-yl]-2-methylphenyl]methyl]carbamate] | 0 | 68 | 
102 to 106 | COC(=O)NCc1cc(-c2cnn(-c3c(F)cc(C(C)C)cc3F)n2)ccc1C [Compound 108, methyl N-[[5-[2-[2,6-difluoro-4-(1-methylethyl)phenyl]-2H-1,2,3-triazol-4-yl]-2-methylphenyl]methyl]carbamate] |  |  | pest or weed control at 2 ppm (Phakopsora pachyrhizi; Phakopsora pachyrhizi, 216 h, Rate 2 ppm): 100%; pest or weed control at 2 ppm ([1]; Puccinia recondita, 192 h, Rate 2 ppm): 100%
122 to 126 | COC(=O)NCc1cc(-c2cnn(-c3c(F)cccc3F)n2)ccc1C [Compound 112] |  |  | 
136 to 140 | COC(=O)NCc1cc(-c2ncn(-c3c(F)cc(N)cc3F)n2)ccc1C [Compound 106] |  |  | 
117 to 121 | COC(=O)NCc1cc(-c2cnn(-c3c(F)cc(C)cc3F)n2)ccc1C [Compound 111] | 100 | 99 | 
118 to 119 | CCOc1cc(F)c(-n2ccc(-c3ccc(C)c(CNC(=O)OC)c3)n2)c(F)c1 [Compound 11, methyl N-[[5-[1-(4-ethoxy-2,6-difluorophenyl)-1H-pyrazol-3-yl]-2-methylphenyl]methyl]carbamate] | 100 | 100 | 
138 to 142 | COC(=O)NCc1cc(-c2cnn(-c3c(F)cc(C(F)(F)F)cc3F)n2)ccc1C [Compound 141] | 100 | 99 | 
194 to 198 | COC(=O)NCc1cc(-c2cn(-c3c(F)cc(N)cc3F)nn2)ccc1C [Compound 131, methyl N-[[5-[1-(4-amino-2,6-difluorophenyl)-1H-1,2,3-triazol-4-yl]-2-methylphenyl]methyl]carbamate] |  |  | 
